{
  "source": "patent US11136561B2",
  "about": "“Polypeptide for the enzymatic detoxification of zearalenone, isolated polynucleotide, and associated additive, use and method” (priority 2014, dated 2021)",
  "molecules": {"B1": {"name": "polypeptide of SEQ ID No. 1: monooxygenase converting the keto group in position 7 of zearalenone into an ester group (protein)", "chain": "MTLEAIPVPEETPAQTVPTAPLSEEEREALKHRYRAERDKRIREDGIKQYRSLEGLLDVDDTKDPYTPVKPREPLNDHVDFLFLGGGFAGLIVCSHLKKTGFNDFRIIESGGDFGGVWYWNRFPGAMCDTAAMVYLPLLEETGTVPSAKYVRGPEILAHAQRIARTFDLYPHALFHTHLESLTWDEEQGVWKVKTRQGDSFTATHVGMGTGPLNKPHLPGIPGIEKFKGKAMHTARWDFATTGGGWNGEVMEGLKDKRVGVIGTGATGIQAIPELGRDSGELFVFQRTPSAVAVRGNHPIDPEWFASLDKGWQTKWNRNFIQLMSSGMAENDYVRDGWTDGVKRITARMFAEAAKAGRDPSTLSFDDFLAAYHLSDDEYMTAVRNRTNEVVNDPKTADGLKAWYRQFCKRPCFHDEFLATFNRPTVHLVDTNGQGVTEVDETGVWANGQHYDLDIIVYATGFEFNSEWTYKSGMEVYGRDGLTLTQAWKDGMKTYHGMHINGFPNLFMLQFQQGSSLASNITSNYVDSGYTIAAILNKKKELGAKTVEVPADVQSKWIEHLLTANKGLIGGPECTPGYYNNEGQEEGLKEKLNGARYPAGSLAFFDYIAEWRTNGKFEGLAFDGKQIAVQ", "modifications": "Trichosporon mycotoxinivorans", "notes": "monooxygenase converting the keto group in position 7 of zearalenone into an ester group"}},
  "key": {"[1]": {"target": "T1, fusion protein containing the hormone-dependent activation domain of the human estrogen receptor alpha and the DNA binding domain of the yeast Gal4 protein (Homo sapiens, UniProt P03372)", "T1 construct": "expressed in transfected cells; host or cells: Saccharomyces cerevisiae YZHB817 (PJ69-4a derivative, pdr5 snq2) carrying expression vector pTK103", "T1 sequence (P03372 311-595 limits assumed)": "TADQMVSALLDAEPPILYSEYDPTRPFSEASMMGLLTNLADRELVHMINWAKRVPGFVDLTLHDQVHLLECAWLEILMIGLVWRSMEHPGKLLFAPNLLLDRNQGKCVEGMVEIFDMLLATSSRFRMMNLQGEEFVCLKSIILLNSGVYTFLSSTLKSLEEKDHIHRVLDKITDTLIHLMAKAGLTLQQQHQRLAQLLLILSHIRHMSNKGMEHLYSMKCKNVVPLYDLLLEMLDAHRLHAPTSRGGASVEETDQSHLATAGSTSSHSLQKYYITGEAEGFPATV", "assay_type": "cell-based", "settings": "for Concentration necessary to express 7.5 relative units of beta-galactosidase: GAL7-lacZ reporter, 18 hours at 30° C.", "source_text": "The purified metabolite iZOM as described in Example 2 was used to determine its toxicity, expressed by its estrogenic activity, and compared to that of zearalenone.\nFor measuring the estrogenic activity, a specially prepared reporter yeast strain, YZHB817 (Bachmann, H.: Phenotypic detection of zearalenone in Saccharomyces cerevisiae. Master thesis BOKU Vienna, 2003) was used. This strain is derived from yeast-two hybrid strain PJ69-4a (MATa trp1-901 leu2-3,112 ura3-52 his3-200 gal4-(deleted) gal80(deleted) LYS2::GAL1-HIS3 GAL2-ADE2 met2::GAL7-lacZ) (James et al. 1996, Genetics; 144(4), 1425-1436). PJ69-4a was further developed by the disruption of the ABC transporters PDR5 and SNQ2. […] This strain was subsequently transformed with an expression vector (pTK103) that triggers the production of a fusion protein containing the hormone-dependent activation domain of the human estrogen receptor alpha and the DNA binding domain of the yeast Gal4 protein, in order to obtain the strain YZHB817.\nIn the presence of estrogenic substances, the yeast strain YZHB817 induces the expression of the GAL7 lacZ reporter gene, whose product, the enzyme beta-galactosidase, is easy to measure by the hydrolyzation of the chromogenic substrate ONPG (ortho-nitrophenyl-beta-galactoside) at 420 nm (Current Protocols in Molecular Biology, Chapter 13, Yeast (Eds. Lundblad V, Struhl, K.)).\n[…] of the estrogenic test solution (ZEN or iZOM) were dissolved in 50% ethanol, mixed with 1.9 ml of the yeast culture of strain […] in SC-TRP medium at a cell density of OD600=0.1, and incubated for 18 hours at 30° C. and 180 rpm. After this, the OD600 of the culture was determined, and the cell pellet (10 min, 13 krpm) of 1 ml was resuspended in […] Z buffer and permeabilized with 25 μl chloroform. […] The supernatant was measured at 420 nm, and the relative units (based on the used cell amount) were calculated as: RU=(OD420×1000)/(OD600×incubation time in min)"}, "pigs": {"system": "pigs", "settings": "cited from earlier work"}, "bovine": {"system": "bovine", "settings": "cited from earlier work"}, "[2]": {"settings": "extrusion and oxidants, e.g. 16 hours at 80° C. with 10% hydrogen peroxide solution; cited from earlier work"}, "[3]": {"settings": "cited from earlier work"}, "mammals": {"system": "mammals", "settings": "cited from earlier work"}, "[4]": {"settings": "cited from earlier work", "remark": "listed apart in the source"}, "[5]": {"system": "polypeptide of SEQ ID No. 1", "experiment": "Metabolization of ZEN by yeast strain YZGA515 expressing the polypeptide of SEQ ID No. 1 (test setup), HPLC-MS", "assay_type": "cell-based, Saccharomyces cerevisiae", "settings": "expressed in yeast strain YZGA515", "source_text": "The yeast strain YZGA515 (Saccharomyces cerevisiae modified by inactivation of the ABC transporter gene PDR5 (Poppenberger et al. 2003, J. Biol. Chem., 278 (48) 47905-14) for the enhanced absorption of zearalenone (ZEN)) was transformed by the plasmid pCS57 using standard techniques. pCS57 is a plasmid derived from the yeast expression plasmid pADH-FW (Mitterbauer et. al 2002, Appl. Environ. Microbiol.; 68 (3), 1336-1346) with LEU2 as selection marker and ADH1 promoter.\nIn the test setup, the yeast strain YZGA515 was transformed with the pCS57 vector additionally containing the polynucleotide of SEQ ID No. 4 as BamHI-Xhol fragment after the strongly constitutive ADH1 promoter (alcohol dehydrogenase 1). This enabled the formation of the polypeptide of SEQ ID No. 1.\nThe yeast strain YZGA515 with the empty vector (pADH-FW without the polynucleotide of SEQ ID No.4) was transformed as negative control.\nThe transgenic yeasts (test setup and negative control) were cultivated in SC-LEU medium (Sherman 1991, Methods Enzymol., 194, 3-21), centrifuged and resuspended in fresh SC-LEU medium at a concentration of 2 mg/l ZEN, wherein a cell density of OD600=4 was adjusted in both cases. […]\nIn a further test setup, the metabolite iZOM was additionally measured quantitatively. […]"}},
  "data": [
    {"molecule": "CC1CCCC(=O)OCCC/C=C/c2cc(O)cc(O)c2C(=O)O1", "note": "(stereo not shown) [iZOM]", "values": [
      {"measurement": "Concentration necessary to express 7.5 relative units of beta-galactosidase", "setting": "[1]", "result": "about 500 ppb"},
      {"measurement": "Toxicity lower by a factor (than zearalenone)", "setting": "[1]; toxicity expressed by estrogenic activity", "result": "about 100"}
    ]},
    {"molecule": "C[C@H]1CCCC(=O)CCC/C=C/c2cc(O)cc(O)c2C(=O)O1", "note": "[ZEN, (2E,11D)-15,17-dihydroxy-11-methyl-12-oxabicyco[12.4.0]octadeca-1(18), 2,14,16-tetraene-7,13-dione]", "values": [
      {"measurement": "ZEN concentration in feeds that may lead to hyper-estrogenicity", "setting": "pigs", "result": "above 1.5 ppm"},
      {"measurement": "ZEN concentration made responsible for miscarriages", "setting": "bovine", "result": 12, "unit": "ppm"},
      {"measurement": "Reduction of ZEN content", "setting": "[2]", "result": 83.9, "unit": "%"},
      {"measurement": "Time after oral administration at which ZEN is detectable in blood", "setting": "[3]", "result": 30, "unit": "min"},
      {"measurement": "ZEN concentration in feeds leading to development disorders", "setting": "mammals", "result": "above 0.5 ppm"},
      {"measurement": "oral LD50", "setting": "[4]", "result": "up to 20,000 mg/kg body weight"},
      {"measurement": "Concentration necessary to express 7.5 relative units of beta-galactosidase", "setting": "[1]", "result": "approximately 45 ppb"}
    ]},
    {"molecule": "B1", "values": [
      {"measurement": "Conversion of ZEN to iZOM", "setting": "[5]", "result": "able to convert ZEN to its metabolite iZOM"}
    ]}
  ]
}
